The target of the experiment is T1, RON Kinase (Homo sapiens, UniProt Q04912).
T1 construct: purchased Promega V8071
Nature of the experiment: RON Kinase ADP Glo Assay. The experiment is classed as biochemical. The conditions noted are these: ratio cMET IC50 / RON IC50. How it is done:
RON Kinase ADP Glo Assay • Assay Buffer: 40 mM Tris-HCl, pH7.5, 20 mM MgCl2, 0.1 mg/mL BSA • RON Kinase+ADP-Glo™ Assay (Promega #: V8071) • Substrate: […] Axltide • Enzyme: 100 ng/μL RON Kinase • ATP: 10 mM • ADP-Glo™ Reagent • Kinase Detection Reagent • 384-well white assay plates Kinase assay was done by following instructions from the kit. Briefly, a ten-point serial dilution of compound was prepared at 5× in assay buffer with the final assay concentrations starting at 300 nM, 100 nM, 30 nM, 10 nM . . . 0 nM. Enzyme, substrate, and ATP were used at 25 ng, 2000 ng, and 25 µM, respectively. The assay plate was set up by mixing the components in a total reaction volume of 10 μL per well. The plate was centrifuged gently for 10 seconds and incubated at room temperature (RT) for 60 minutes in the dark. The ADP-Glo Reagent and kinase detection reagent were added and incubated as recommended. The reaction was quantified by measuring luminescence on the Perkin Elmer Envision plate reader.

T1 sequence (Q04912 25-1400): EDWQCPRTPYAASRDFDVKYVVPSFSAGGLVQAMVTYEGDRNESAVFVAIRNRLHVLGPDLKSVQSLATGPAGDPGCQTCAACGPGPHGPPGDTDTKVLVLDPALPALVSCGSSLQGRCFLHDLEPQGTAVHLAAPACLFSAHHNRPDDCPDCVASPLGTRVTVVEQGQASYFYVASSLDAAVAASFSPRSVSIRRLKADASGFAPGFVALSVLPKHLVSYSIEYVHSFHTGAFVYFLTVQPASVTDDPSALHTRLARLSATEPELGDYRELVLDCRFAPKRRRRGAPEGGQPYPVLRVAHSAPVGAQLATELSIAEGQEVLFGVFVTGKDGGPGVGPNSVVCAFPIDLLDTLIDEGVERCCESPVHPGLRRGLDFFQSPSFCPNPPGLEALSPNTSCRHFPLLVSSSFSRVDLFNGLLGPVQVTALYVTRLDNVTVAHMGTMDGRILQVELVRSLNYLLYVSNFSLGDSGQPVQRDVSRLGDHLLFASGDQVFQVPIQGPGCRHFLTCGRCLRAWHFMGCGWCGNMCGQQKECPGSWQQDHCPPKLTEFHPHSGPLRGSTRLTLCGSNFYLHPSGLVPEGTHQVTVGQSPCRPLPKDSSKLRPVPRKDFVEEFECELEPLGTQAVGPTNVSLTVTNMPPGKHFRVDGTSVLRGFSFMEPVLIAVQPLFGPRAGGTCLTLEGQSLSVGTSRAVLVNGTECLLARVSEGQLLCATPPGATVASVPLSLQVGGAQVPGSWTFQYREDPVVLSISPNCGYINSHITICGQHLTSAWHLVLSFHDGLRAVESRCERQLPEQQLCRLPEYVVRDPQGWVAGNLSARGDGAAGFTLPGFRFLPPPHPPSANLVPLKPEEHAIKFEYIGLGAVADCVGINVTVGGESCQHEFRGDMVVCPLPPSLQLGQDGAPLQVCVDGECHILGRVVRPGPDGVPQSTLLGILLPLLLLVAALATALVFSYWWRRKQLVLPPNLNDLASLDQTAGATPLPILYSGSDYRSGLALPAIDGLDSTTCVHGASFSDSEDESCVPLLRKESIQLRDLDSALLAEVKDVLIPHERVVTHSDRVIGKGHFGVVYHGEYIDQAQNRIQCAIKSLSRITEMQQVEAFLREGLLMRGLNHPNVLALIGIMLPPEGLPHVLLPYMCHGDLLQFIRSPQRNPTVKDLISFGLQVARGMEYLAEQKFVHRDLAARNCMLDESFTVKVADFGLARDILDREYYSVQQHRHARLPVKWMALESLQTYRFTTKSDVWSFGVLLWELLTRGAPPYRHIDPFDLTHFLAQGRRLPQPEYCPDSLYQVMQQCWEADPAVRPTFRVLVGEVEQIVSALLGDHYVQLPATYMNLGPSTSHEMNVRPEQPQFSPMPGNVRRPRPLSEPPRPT

In the case of `CCOc1ccn(-c2ccc(F)cc2)c(=O)c1C(=O)Nc1ccc(Oc2ccnc(N)c2P(C)(C)=O)c(F)c1` [Compound 58, N-{4-[2-amino-3-(dimethylphosphoryl)-4-pyridyloxy]-3-fluorophenyl}-4-ethoxy-1-(4-fluorophenyl)-2-oxo-1,2-dihydronicotinamide], the “Fold Selectivity (cMET/RON)” value is recorded as “+ (represents a value below 0.5)”.

Turning to `C=CC(=O)N1CCN(C(=O)Cc2cccc(Nc3nccc(Oc4ccc(NC(=O)c5cnn(-c6ccc(F)cc6)c5C(F)(F)F)cc4F)n3)c2)CC1` [Compound 50, N-[4-(2-{m-[2-(4-acryloyl-1-piperazinyl)-2-oxoethyl]phenylamino}-4-pyrimidinyloxy)-3-fluorophenyl]-1-(p-fluorophenyl)-5-(trifluoromethyl)-4-pyrazolecarboxamide], the “Fold Selectivity (cMET/RON)” value is on record as “+++ (represents a value greater than 3 up to 50)”.

For `Cn1cnc(-c2cc3nccc(Oc4ccc(NC(=O)c5cnn(-c6ccc(F)cc6)c5C(F)(F)F)cc4F)n3n2)c1` [Compound 8, N-(3-fluoro-4-((2-(1-methyl-1H-imidazol-4-yl)pyrazolo[1,5-a]pyrimidin-7-yl)oxy)phenyl)-1-(4-fluorophenyl)-5-(trifluoromethyl)-1H-pyrazole-4-carboxamide], the “Fold Selectivity (cMET/RON)” value is “+++ (represents a value greater than 3 up to 50)”.

As for `O=C(Nc1ccc(Oc2ccnc(Nc3cccc(CCN4CCN(C5CC5)CC4)c3)n2)c(F)c1)c1cnn(-c2ccc(F)cc2)c1C(F)(F)F` [Compound 49, N-(4-((2-((3-(2-(4-cyclopropylpiperazin-1-yl)ethyl)phenyl)amino)pyrimidin-4-yl)oxy)-3-fluorophenyl)-1-(4-fluorophenyl)-5-(trifluoromethyl)-1H-pyrazole-4-carboxamide], the “Fold Selectivity (cMET/RON)” value is reported as “++ (represents a value greater than 0.5 up to 3)”.

Take `Cn1cc(-c2cc3nccc(Oc4ccc(NC(=O)c5cnn(-c6ccc(F)cc6)c5C(F)(F)F)cc4F)n3n2)cn1` [Compound 7, N-(3-fluoro-4-((2-(1-methyl-1H-pyrazol-4-yl)pyrazolo[1,5-a]pyrimidin-7-yl)oxy)phenyl)-1-(4-fluorophenyl)-5-(trifluoromethyl)-1H-pyrazole-4-carboxamide]: the “Fold Selectivity (cMET/RON)” value is “+++ (represents a value greater than 3 up to 50)”.

In the case of `O=C(Nc1ccc(Oc2ccnc(Nc3cccc(N4CCOCC4)c3)n2)c(F)c1)c1cnn(-c2ccc(F)cc2)c1C(F)(F)F` [Compound 1, N-(3-fluoro-4-((2-((3-morpholinophenyl)amino)pyrimidin-4-yl)oxy)phenyl)-1-(4-fluorophenyl)-5-(trifluoromethyl)-1H-pyrazole-4-carboxamide], the “Fold Selectivity (cMET/RON)” value was “+++ (represents a value greater than 3 up to 50)”.

Consider `C=CC(=O)N1CCN(CCc2cccc(Nc3nccc(Oc4ccc(NC(=O)c5cnn(-c6ccc(F)cc6)c5C(F)(F)F)cc4F)n3)c2)CC1` [Compound 43, N-[4-(2-{m-[2-(4-acryloyl-1-piperazinyl)ethyl]phenylamino}-4-pyrimidinyloxy)-3-fluorophenyl]-1-(p-fluorophenyl)-5-(trifluoromethyl)-4-pyrazolecarboxamide], for which the “Fold Selectivity (cMET/RON)” value is reported as “+++ (represents a value greater than 3 up to 50)”.

On to `CC(C)Oc1cccc(Nc2nccc(Oc3ccc(NC(=O)c4cnn(-c5ccc(F)cc5)c4C(F)(F)F)cc3F)n2)c1` [Compound 35, N-(3-fluoro-4-((2-((3-isopropoxyphenyl)amino)pyrimidin-4-yl)oxy)phenyl)-1-(4-fluorophenyl)-5-(trifluoromethyl)-1H-pyrazole-4-carboxamide], for which the “Fold Selectivity (cMET/RON)” value was “+++ (represents a value greater than 3 up to 50)”.

With `CP(C)(=O)c1cncnc1Oc1ccc(NC(=O)c2cnn(-c3ccc(F)cc3)c2C(F)(F)F)cc1F` [Compound 54, N-{4-[5-(dimethylphosphoryl)-4-pyrimidinyloxy]-3-fluorophenyl}-1-(p-fluorophenyl)-5-(trifluoromethyl)-4-pyrazolecarboxamide], the “Fold Selectivity (cMET/RON)” value is listed as “+++ (represents a value greater than 3 up to 50)”.

Take `COc1cc(Nc2nccc(Oc3ccc(NC(=O)c4cnn(-c5ccc(F)cc5)c4C(F)(F)F)cc3F)n2)cc(OC)c1` [Compound 24, N-(4-((2-((3,5-dimethoxyphenyl)amino)pyrimidin-4-yl)oxy)-3-fluorophenyl)-1-(4-fluorophenyl)-5-(trifluoromethyl)-1H-pyrazole-4-carboxamide]: the “Fold Selectivity (cMET/RON)” value is reported as “+++ (represents a value greater than 3 up to 50)”.

Regarding `Cn1cc(-c2c(Oc3ccc(NC(=O)c4ccnc(-c5ccc(F)cc5)c4C(F)(F)F)cc3F)ccnc2N)cn1` [Compound 12, N-(4-((2-amino-3-(1-methyl-1H-pyrazol-4-yl)pyridin-4-yl)oxy)-3-fluorophenyl)-2-(4-fluorophenyl)-3-(trifluoromethyl)isonicotinamide], the “Fold Selectivity (cMET/RON)” value is listed as “+++ (represents a value greater than 3 up to 50)”.

On to `Cn1cc(-c2c(Oc3ccc(NC(=O)c4cc(-c5ccc(F)cc5)no4)cc3F)ccnc2N)cn1` [Compound 21, N-(4-((2-amino-3-(1-methyl-1H-pyrazol-4-yl)pyridin-4-yl)oxy)-3-fluorophenyl)-3-(4-fluorophenyl)isoxazole-5-carboxamide], for which the “Fold Selectivity (cMET/RON)” value is recorded as “+ (represents a value below 0.5)”.

Regarding `Cn1cc(-c2c(Oc3ccc(NC(=O)c4nnn(-c5ccc(F)cc5)c4C(F)(F)F)cc3F)ccnc2N)cn1` [Compound 6, N-(4-((2-amino-3-(1-methyl-1H-pyrazol-4-yl)pyridin-4-yl)oxy)-3-fluorophenyl)-1-(4-fluorophenyl)-5-(trifluoromethyl)-1H-1,2,3-triazole-4-carboxamide], the “Fold Selectivity (cMET/RON)” value is recorded as “++ (represents a value greater than 0.5 up to 3)”.

Regarding `C=CC(=O)N1CCCC(c2cccc(Nc3nccc(Oc4ccc(NC(=O)c5cnn(-c6ccc(F)cc6)c5C(F)(F)F)cc4F)n3)c2)C1` (stereo not drawn) [Compound 38, N-(4-((2-((3-(1-acryloylpiperidin-3-yl)phenyl)amino)pyrimidin-4-yl)oxy)-3-fluorophenyl)-1-(4-fluorophenyl)-5-(trifluoromethyl)-1H-pyrazole-4-carboxamide], the “Fold Selectivity (cMET/RON)” value was “+++ (represents a value greater than 3 up to 50)”.

Turning to `CC(C)N1CCN(CCc2cccc(Nc3nccc(Oc4ccc(NC(=O)c5cnn(-c6ccc(F)cc6)c5C(F)(F)F)cc4F)n3)c2)CC1` [Compound 48, N-[3-fluoro-4-(2-{m-[2-(4-isopropyl-1-piperazinyl)ethyl]phenylamino}-4-pyrimidinyloxy)phenyl]-1-(p-fluorophenyl)-5-(trifluoromethyl)-4-pyrazolecarboxamide], the “Fold Selectivity (cMET/RON)” value was “++ (represents a value greater than 0.5 up to 3)”.

As for `CP(C)(=O)c1c(Oc2ccc(NC(=O)c3cnn(-c4ccc(F)cc4)c3C(F)(F)F)cc2F)ccnc1N` [Compound 17, N-(4-((2-amino-3-(dimethylphosphoryl)pyridin-4-yl)oxy)-3-fluorophenyl)-1-(4-fluorophenyl)-5-(trifluoromethyl)-1H-pyrazole-4-carboxamide], the “Fold Selectivity (cMET/RON)” value is “+++ (represents a value greater than 3 up to 50)”.

Regarding `Cn1cnc(-c2cc3ncnc(Oc4ccc(NC(=O)c5cnn(-c6ccc(F)cc6)c5C(F)(F)F)cc4F)c3s2)c1` [Compound 2, N-(3-fluoro-4-((6-(1-methyl-1H-imidazol-4-yl)thieno[3,2-d]pyrimidin-4-yl)oxy)phenyl)-1-(4-fluorophenyl)-5-(trifluoromethyl)-1H-pyrazole-4-carboxamide], the “Fold Selectivity (cMET/RON)” value is “+++ (represents a value greater than 3 up to 50)”.

Take `CCCN1CCN(CCc2cccc(Nc3nccc(Oc4ccc(NC(=O)c5cnn(-c6ccc(F)cc6)c5C(F)(F)F)cc4F)n3)c2)CC1` [Compound 47, N-(3-Fluoro-4-((2-((3-(2-(4-Propylpiperazin-1-Yl)Ethyl)Phenyl)Amino)Pyrimidin-4-Yl)Oxy)Phenyl)-1-(4-Fluorophenyl)-5-(Trifluoromethyl)-1H-Pyrazole-4-Carboxamide]: the “Fold Selectivity (cMET/RON)” value is “+++ (represents a value greater than 3 up to 50)”.

As to `C=CC(=O)NC1CCCC(Nc2nccc(Oc3ccc(NC(=O)c4cnn(-c5ccc(F)cc5)c4C(F)(F)F)cc3F)n2)C1` (single isomer, unassigned) [44 (peak 1), N-(4-((2-((3-acrylamidocyclohexyl)amino)pyrimidin-4-yl)oxy)-3-fluorophenyl)-1-(4-fluorophenyl)-5-(trifluoromethyl)-1H-pyrazole-4-carboxamide], the “Fold Selectivity (cMET/RON)” value was “+++ (represents a value greater than 3 up to 50)”.

For `O=C(Nc1ccc(Oc2ccnc3cc(Br)nn23)c(F)c1)c1cnn(-c2ccc(F)cc2)c1C(F)(F)F` [Compound 4, N-(4-((2-bromopyrazolo[1,5-a]pyrimidin-7-yl)oxy)-3-fluorophenyl)-1-(4-fluorophenyl)-5-(trifluoromethyl)-1H-pyrazole-4-carboxamide], the “Fold Selectivity (cMET/RON)” value was “++ (represents a value greater than 0.5 up to 3)”.

In the case of `C=CC(=O)NC1CCCC(Nc2nccc(Oc3ccc(NC(=O)c4cnn(-c5ccc(F)cc5)c4C(F)(F)F)cc3F)n2)C1` (single isomer, unassigned) [44 (peak 2), N-(4-((2-((3-acrylamidocyclohexyl)amino)pyrimidin-4-yl)oxy)-3-fluorophenyl)-1-(4-fluorophenyl)-5-(trifluoromethyl)-1H-pyrazole-4-carboxamide], the “Fold Selectivity (cMET/RON)” value was “+++ (represents a value greater than 3 up to 50)”.

The values above are taken from patent publication US20260132158A1, “PHENYL OXY AMIDE KINASE INHIBITORS” (THE TRANSLATIONAL GENOMICS RESEARCH INSTITUTE, priority 2022, published 2026).
